# Results as given in ChEMBL document CHEMBL5257035, “Nucleoside Derived Antibiotics to Fight Microbial Drug Resistance: New Utilities for an Established Class of Drugs?” (J Med Chem, 2016).
# Assays:
# Format in all cases: functional
# [1] = system: Cutaneotrichosporon cutaneum; test: Antifungal activity against Trichosporon cutaneum 3071 assessed as reduction in microbial growth inhibition for 48 hrs by broth microdilution assay
# Candida albicans = test: Antifungal activity against Candida albicans SC5314 assessed as reduction in microbial growth inhibition incubated for 48 hrs by broth microdilution assay
# Staphylococcus aureus = test: Antibacterial activity against methicillin-resistant Staphylococcus aureus SR3637 assessed as reduction in bacterial growth inhibition
# Cryptococcus neoformans = test: Antifungal activity against Cryptococcus neoformans assessed as reduction in fungal growth
# Coccidioides immitis = test: Antifungal activity against Coccidioides immitis assessed as reduction in fungal growth
# [2] = system: Mycolicibacterium smegmatis; test: Antibacterial activity against Mycobacterium smegmatis SANK75075 assessed as bacterial growth inhibition
# Pseudomonas aeruginosa = test: Antibacterial activity against Pseudomonas aeruginosa assessed as bacterial growth reduction
compound,measurement,setting,value
NC(=O)OC[C@H](O)[C@@H](O)[C@H](N)C(=O)N[C@H](C(=O)NC(CCC(=O)O)C(=O)O)[C@H]1O[C@@H](n2ccc(=O)[nH]c2=O)[C@H](O)[C@@H]1O (stereo not given in full),MIC,[1],256 µg/mL
same,MIC,Candida albicans,> 256 µg/mL
C/C=C1\CN(C(=O)[C@@H](NC(=O)[C@@H](N)[C@H](O)[C@@H](O)COC(N)=O)[C@H]2O[C@@H](n3cc(CO)c(=O)[nH]c3=O)[C@H](O)[C@@H]2O)[C@H]1C(=O)O,MIC,[1],256 µg/mL
same,MIC,Candida albicans,> 256 µg/mL
CCCCCCCCCCCCCC[C@@H](NC(=O)C(C)CCCNC(=N)N)C(=O)NC[C@@H]1C[C@H]2[C@@H](C(=O)N1)[C@H]([C@H]1O[C@@H](n3ccc(=O)[nH]c3=O)[C@H](O)[C@@H]1O)ON2CCCN (stereo not given in full),MIC,Staphylococcus aureus,8 µg/mL
C/C=C1\CN(C(=O)[C@@H](NC(=O)[C@@H](N)[C@H](O)[C@@H](O)COC(N)=O)[C@H]2O[C@@H](n3cc(C=O)[nH]c3=O)[C@H](O)[C@@H]2O)[C@H]1C(=O)O,MIC,[1],0.5 µg/mL
same,MIC,Candida albicans,> 256 µg/mL
CSCC[C@H](N)C(=O)N[C@H](C(=O)O)[C@@H]1C[C@@H](O)[C@@H](O)[C@H](n2ccc(=O)[nH]c2=O)O1,MIC,Cryptococcus neoformans,0.25 µg/mL
same,MIC,Coccidioides immitis,0.25 µg/mL
CCCCCCCCCCCNC(=O)C1=C[C@@H](O)[C@@H](O)[C@H](O[C@@H](C(N)=O)[C@H]2O[C@@H](n3ccc(=O)[nH]c3=O)[C@H](O)[C@@H]2OC)O1,MIC,[2],12.5 µg/mL
C[C@@H]([C@H](NC(=O)[C@H](Cc1ccccc1)NC(=O)N[C@@H](Cc1c[nH]c2ccccc12)C(=O)O)C(=O)NCC1C[C@@H](O)[C@H](n2ccc(=O)[nH]c2=O)O1)N(C)C(=O)[C@@H](N)Cc1ccc(F)cc1 (stereo not given in full),MIC,Pseudomonas aeruginosa,16 µg/mL
CCCCCCCCCCCCCC[C@@H](NC(=O)C(C)CCCNC(=N)N)C(=O)NC[C@@H]1CC[C@H]2[C@@H](C(=O)N1)[C@H]([C@H]1O[C@@H](n3ccc(=O)[nH]c3=O)[C@H](O)[C@@H]1O)ON2CCCN (stereo not given in full),MIC,Staphylococcus aureus,8 µg/mL
NC(=O)OC[C@H](O)[C@@H](O)[C@H](N)C(=O)N[C@H](C(=O)NC(CCC(=O)O)C(=O)O)[C@H]1O[C@@H](n2cc(C=O)[nH]c2=O)[C@H](O)[C@@H]1O (stereo not given in full),MIC,[1],256 µg/mL
same,MIC,Candida albicans,> 256 µg/mL
CCCCNC(=O)C1=C[C@@H](O)[C@@H](O)[C@H](O[C@@H](C(N)=O)[C@H]2O[C@@H](n3ccc(=O)[nH]c3=O)[C@H](O)[C@@H]2OC)O1,MIC,[2],12.5 µg/mL
CO[C@H]1[C@@H](O)[C@H](n2ccc(=O)[nH]c2=O)O[C@@H]1[C@@H](O[C@@H]1OC(C(=O)Nc2ccccc2)=C[C@@H](O)[C@H]1O)C(N)=O,MIC,[2],6.25 µg/mL
N[C@@H](Cc1ccc(O)cc1)C(=O)N[C@H](C(=O)O)[C@@H]1C[C@@H](O)[C@@H](O)[C@H](n2ccc(=O)[nH]c2=O)O1,MIC,Cryptococcus neoformans,0.25 µg/mL
same,MIC,Coccidioides immitis,0.25 µg/mL
CCCCCCCCCCCCCC(=O)NC[C@@H]1C[C@H]2[C@@H](C(=O)N1CCCNC(=N)N)[C@H]([C@H]1O[C@@H](n3ccc(=O)[nH]c3=O)[C@H](O)[C@@H]1O)ON2CCCN,MIC,Staphylococcus aureus,8 µg/mL
CC(C)C[C@H](NC(=O)N[C@@H](Cc1c[nH]c2ccccc12)C(=O)O)C(=O)N[C@H](C(=O)NC[C@H]1C[C@@H](O)[C@H](n2ccc(=O)[nH]c2=O)O1)[C@H](C)N(C)C(=O)CN,MIC,Pseudomonas aeruginosa,4 µg/mL
N[C@@H](Cc1ccccc1)C(=O)N[C@H](C(=O)O)[C@@H]1C[C@@H](O)[C@@H](O)[C@H](n2ccc(=O)[nH]c2=O)O1,MIC,Cryptococcus neoformans,0.25 µg/mL
same,MIC,Coccidioides immitis,0.25 µg/mL
CCCCCCCCCCCCCC[C@@H](NC(=O)C(C)CCCNC(=N)N)C(=O)NC[C@@H]1C[C@H]2[C@@H](C(=O)N1)[C@@H]([C@H]1O[C@@H](n3ccc(=O)[nH]c3=O)[C@H](O)[C@@H]1O)ON2CCCN (stereo not given in full),MIC,Staphylococcus aureus,8 µg/mL
CCCCCCCCCCCCCC(=O)NC[C@@H]1C[C@H]2[C@@H](C(=O)N1CCCNC(=N)N)[C@@H]([C@H]1O[C@@H](n3ccc(=O)[nH]c3=O)[C@H](O)[C@@H]1O)ON2CCCN,MIC,Staphylococcus aureus,8 µg/mL
CC(C)C[C@H](NC(=O)N[C@@H](Cc1ccc(O)cc1)C(=O)O)C(=O)N[C@H](C(=O)NCC1C[C@@H](O)[C@H](n2ccc(=O)[nH]c2=O)O1)[C@H](C)N(C)C(=O)[C@H](C)N (stereo not given in full),MIC,Pseudomonas aeruginosa,16 µg/mL
